In this assay the target is T1, BjPutA (proline utilization A) (Bradyrhizobium diazoefficiens, UniProt Q89E26, D779Y).
T1 sequence (Q89E26 1-999 D779Y): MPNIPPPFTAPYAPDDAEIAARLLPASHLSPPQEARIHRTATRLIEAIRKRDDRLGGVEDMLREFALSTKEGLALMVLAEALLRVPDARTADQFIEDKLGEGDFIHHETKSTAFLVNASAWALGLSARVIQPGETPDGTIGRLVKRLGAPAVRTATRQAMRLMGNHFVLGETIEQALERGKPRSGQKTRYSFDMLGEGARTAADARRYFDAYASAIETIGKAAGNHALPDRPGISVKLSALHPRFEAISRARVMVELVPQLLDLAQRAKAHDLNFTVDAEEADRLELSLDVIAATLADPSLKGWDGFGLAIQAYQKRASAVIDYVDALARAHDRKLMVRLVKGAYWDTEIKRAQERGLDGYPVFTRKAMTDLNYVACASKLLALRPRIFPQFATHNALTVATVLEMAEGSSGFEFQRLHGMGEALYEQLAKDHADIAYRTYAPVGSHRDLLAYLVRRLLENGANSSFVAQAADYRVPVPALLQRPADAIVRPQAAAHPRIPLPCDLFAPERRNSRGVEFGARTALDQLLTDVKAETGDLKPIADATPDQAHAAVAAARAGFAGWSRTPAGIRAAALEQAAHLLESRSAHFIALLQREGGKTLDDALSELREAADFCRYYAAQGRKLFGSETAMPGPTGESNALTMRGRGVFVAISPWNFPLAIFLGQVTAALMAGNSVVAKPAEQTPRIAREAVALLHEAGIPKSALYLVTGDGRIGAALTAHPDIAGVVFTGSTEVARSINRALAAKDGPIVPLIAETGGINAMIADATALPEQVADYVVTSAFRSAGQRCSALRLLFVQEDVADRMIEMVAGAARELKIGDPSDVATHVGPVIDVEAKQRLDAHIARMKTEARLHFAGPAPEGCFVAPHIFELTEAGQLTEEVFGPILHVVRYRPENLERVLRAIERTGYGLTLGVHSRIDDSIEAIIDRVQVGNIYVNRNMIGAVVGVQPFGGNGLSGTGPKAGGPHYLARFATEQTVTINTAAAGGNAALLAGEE
The assay is described as follows: intrinsic tryptophan fluorescence quenching. The class given is binding.

Molecule `NC(=O)c1ccc[n+]([C@@H]2O[C@H](COP(=O)(O)OP(=O)(O)OC[C@H]3O[C@@H](n4cnc5c(N)ncnc54)[C@H](O)[C@@H]3O)[C@@H](O)[C@H]2O)c1` [NAD^+] displayed a Kd of 650 ± 40 nM.

In general, Kd refers to the constant that tells how readily two partners part at equilibrium. High values mean lower affinity, low ones higher affinity.

These data come from publication PMC4131897 (Biochemistry, 2014).
